Experimental data taken from patent US20240050562A1, “INHIBITOR OF CELL PROLIFERATION IN OBINUTUZUMAB RESISTANT CD20-POSITIVE CANCER, AND MEDICINAL COMPOSITION, MEDICINE, PRODUCTION, METHOD FOR INHIBITING CELL PROLIFERATION, THERAPEUTIC METHOD, TYPE II ANTI-CD20 ANTIBODY, COMPOUNDS, COMBINATION OF SAME, ENHANCER AND INDUCER, EACH RELATING THERETO” (Chugai Seiyaku Kabushiki Kaisha, priority 2019, published 2024).
Where a SMILES comes first, the peptide text is derived from it. The star is where a group is joined. Cbz = O=C(OCc1ccccc1)*; CH2F = FC*

Columns and labels:
[1] = test system: obinutuzumab-directed cell death-tolerant clones 1A2, 1D2, 3A4 (derived from SU-DHL-4)
Description: The human germinal center B-cell-like diffuse large B-cell lymphoma cell line SU-DHL-4 was treated with 100 μg/mL of N-ethyl-N-nitrosourea for 24 hours to randomly introduce gene mutations. Thereafter, obinutuzumab was added to 200 μg/mL, and culturing was carried out at 37° C. in the presence of 5% CO2 for three weeks.
(§1) After four days of culturing at 37° C. in the presence of 5% CO2, the number of viable cells was measured using CellTiter-Glo 3D Cell Viability Assay (Promega). […] The effects of the combined use were assessed by numerical values obtained as follows: login (proportion of cell proliferation when both agents were added)—log10 (proportion of cell proliferation when obinutuzumab was added alone)—log10 (proportion of cell proliferation when the anti-cancer agent was added alone). Here, for the combined use, a numerical value of less than 0 means a supra-additive effect, 0 means an additive effect, and greater than 0 means a sub-additive effect (J Biopharm Stat. 2012; 22(3): 535-543).

[2] = test system: SU-DHL-4; experiment: four-day cell proliferation test, parent cell line; format: cell-based, human; conditions: SU-DHL-4, four-day cell proliferation test
[3] = test system: RL parent cell line and ADCC-tolerant cell lines RL-E300-1, RL-E300-2, RL-E300-8, RL-E300-22; experiment: ADCC sensitivity (calcein release, CD16(158V)/NK-92 effector cells); format: cell-based, human; conditions: ET ratio 1:1
Description: Obinutuzumab was added at a concentration of 0.0001-100 ng/mL. CD16(158V)/NK-92 cells were added as effector cells to achieve an ET ratio of 1:1 and the cells were incubated at 37° C. for four hours. In addition, for Maximum Lysis, 1% Triton X-100 was added. After the plates were centrifuged and the supernatants were collected, calcein fluorescence was measured using a plate reader. ADCC sensitivity was assessed with the expression (measurement−background)/(Maximum Lysis−background)×100 (%).
The parent RL cell line and the tolerant cell lines were pre-cultured, with prednisolone (10 μM) added, at 37° C. for 72 hours. […] Obinutuzumab was added at a concentration of 1 ng/mL. CD16(158V)/NK-92 cells were added thereto as effector cells to achieve an ET ratio of 1:1, and the cells were incubated at 37° C. for four hours. In addition, for Maximum Lysis, 1% Triton X-100 was added. After the plates were centrifuged and the supernatants were collected, calcein fluorescence was measured using a plate reader. ADCC sensitivity was assessed with the expression (measurement−background)/(Maximum Lysis−background)×100 (%).

[4] = test system: obinutuzumab-directed cell death-tolerant clone 1A2; conditions: four days; for effect of combined use with obinutuzumab (Bliss independence): log10(both agents) - log10(obinutuzumab alone) - log10(anti-cancer agent alone): obinutuzumab 1 μg/mL + 4-hydroperoxycyclophosphamide 100 nM, doxorubicin 10 nM, vincristine 1 nM or prednisolone 1 μM, <0 supra-additive, 0 additive, >0 sub-additive
Description: as §1
The obinutuzumab-directed cell death-tolerant clone 1A2 was seeded at 1×10^4 cells per well in 96-well plates, and obinutuzumab (0.00015-10 μg/mL) and prednisolone (0.2, 1 μM) were added. After four days of culturing at 37° C. in the presence of 5% CO2, the number of viable cells was measured using CellTiter-Glo 3D Cell Viability Assay (Promega).
(§2) After four days of culturing at 37° C. in the presence of 5% CO2, the number of viable cells was measured using CellTiter-Glo 3D Cell Viability Assay (Promega).
as §2

[5] = test system: obinutuzumab-directed cell death-tolerant clone 1D2; experiment: combined-use cell proliferation test (CellTiter-Glo 3D), clone 1D2; format: cell-based, human; conditions: obinutuzumab 1 μg/mL + 4-hydroperoxycyclophosphamide 100 nM, doxorubicin 10 nM, vincristine 1 nM or prednisolone 1 μM, four days, <0 supra-additive, 0 additive, >0 sub-additive
Description: as §1

[6] = test system: obinutuzumab-directed cell death-tolerant clone 3A4; conditions: obinutuzumab 1 μg/mL + 4-hydroperoxycyclophosphamide 100 nM, doxorubicin 10 nM, vincristine 1 nM or prednisolone 1 μM, four days, <0 supra-additive, 0 additive, >0 sub-additive
Description: as §1

[7] = test system: CD20 on RL parent and ADCC-tolerant cell lines; experiment: CD20 expression by FACS; format: cell-based, human; conditions: prednisolone 10 μM, 72 hours; parent RL cell line and tolerant cell lines; FIG. 10
Description: The parent RL cell line and the tolerant cell lines were seeded at 4×10^5 cells per plate, prednisolone (10 μM) was added, and the cells were cultured at 37° C. for 72 hours. The cells were collected and stained with a control IgG antibody or an anti-CD20 antibody (BD Biosciences), and analysis of CD20 expression was carried out using FACS Fortessa (Becton Dickinson).

[8] = test system: obinutuzumab-directed cell death-tolerant clone 1A2; format: cell-based; conditions: Z-VAD-FMK 40 μM added to obinutuzumab 1 μg/mL + doxorubicin 10 nM, 72 hours, FIG. 7
Description: […] After 72 hours of culturing at 37° C. in the presence of 5% CO2, cells were stained with APO-BrdU TUNEL Assay Kit (Thermo Fisher).
After 72 hours of culturing at 37° C. in the presence of 5% CO2, cells were stained with APO-BrdU TUNEL Assay Kit (Thermo Fisher).

## obinutuzumab: glycoengineered, genetically recombinant humanized anti-CD20 monoclonal antibody, type II anti-CD20 antibody
[1]
  obinutuzumab concentration for 50% cell proliferation inhibition: at least 200 μg/mL
[2]
  obinutuzumab concentration for 50% cell proliferation inhibition: 0.037 µg/mL
[3]; obinutuzumab 0.0001-100 ng/mL, four hours, FIG. 9
  ADCC sensitivity of ADCC-tolerant cell lines compared with the parent cell line: significant reduction in ADCC sensitivity

## O=P1(N(CCCl)CCCl)NC(OO)CCO1 (centres unmarked) [4-hydroperoxycyclophosphamide]
[4]
  effect of combined use with obinutuzumab (Bliss independence): log10(both agents) - log10(obinutuzumab alone) - log10(anti-cancer agent alone): −0.03
[1]; all tolerant clones, combined with obinutuzumab 1 μg/mL, four days
  effect of combined use with obinutuzumab, in words: approximately additive effects
[5]
  effect of combined use with obinutuzumab (Bliss independence): log10(both agents) - log10(obinutuzumab alone) - log10(anti-cancer agent alone): 0.02
[6]
  effect of combined use with obinutuzumab (Bliss independence): log10(both agents) - log10(obinutuzumab alone) - log10(anti-cancer agent alone): 0.00

## CC[C@]1(O)C[C@H]2CN(CCc3c([nH]c4ccccc34)[C@@](C(=O)OC)(c3cc4c(cc3OC)N(C=O)[C@H]3[C@@](O)(C(=O)OC)[C@H](OC(C)=O)[C@]5(CC)C=CCN6CC[C@]43[C@@H]65)C2)C1 [vincristine]
[4]
  effect of combined use with obinutuzumab (Bliss independence): log10(both agents) - log10(obinutuzumab alone) - log10(anti-cancer agent alone): −0.35
[5]
  effect of combined use with obinutuzumab (Bliss independence): log10(both agents) - log10(obinutuzumab alone) - log10(anti-cancer agent alone): −0.10

## C[C@]12C=CC(=O)C=C1CC[C@@H]1[C@@H]2[C@@H](O)C[C@@]2(C)[C@H]1CC[C@]2(O)C(=O)CO [prednisolone]
[5]
  effect of combined use with obinutuzumab (Bliss independence): log10(both agents) - log10(obinutuzumab alone) - log10(anti-cancer agent alone): −0.10
[3]; prednisolone 10 μM 72 hours pre-culture, then obinutuzumab 1 ng/mL, parent and tolerant cell lines, FIG. 11
  ADCC sensitivity after prednisolone pre-treatment: enhances ADCC sensitivity
[7]
  CD20 expression: enhances CD20 expression

## COC(=O)C[C@H](NC(=O)[C@H](C)NC(=O)[C@@H](NC(=O)OCc1ccccc1)C(C)C)C(=O)CF [Z-VAD-FMK] (Cbz-Val-Ala-Asp(OMe)-CH2F)
[4]; Z-VAD-FMK 40 μM added to obinutuzumab 0.1, 1 μg/mL + doxorubicin 10 nM, FIG. 8
  cell proliferation ratio with pan caspase inhibitor: suppressed the doxorubicin-enhanced inhibitory activity of obinutuzumab on cell proliferation
[8]
  DNA fragmentation (TUNEL) induced by obinutuzumab and doxorubicin, with pan caspase inhibitor: suppressed
